Like-named read-outs stand apart in the source and are kept apart here.
Columns and labels:
[1] = test system: female Lewis rat; conditions: in vivo, 10 mg/kg
Experimental: Freund’s incomplete adjuvant (IFA, Difco, Detroit, United States) was mixed with porcine collagen type II (Chondrex, Redmond, United States) using a polytron on ice. The final solution consisted of 200 μg of collagen in 200 μl of IFA. […] of this was injected intradermally (i.d.) into the base of the tail of an isofluorane narcotized female Lewis rat. After 7 days, the isofluorane narcotized animal was boosted i.d. with a fresh batch of the immunization solution in an adjacent site at the base of the tail (100 μg in 100 μl). Paw swelling and body weight were taken three times per week as described below.
There were 10 animals per group for the compound treated groups and n = 9 rats for the vehicle group. […] Hind paws were taken for histological analysis.
There were five animals per group.
All animal studies were performed according to current Swiss animal protection laws, issued by the Cantonal Veterinary Office Basel-Stadt, Switzerland. Body weight of the animals was assessed regularly throughout the study. Mean values of groups were calculated. Scoring of the paw swelling was done on an arbitrary scale of 0–12 per rat, evaluating each hind paw in the front with 0–3 and in the ankle with 0–3, thus obtaining a maximal score of 6 per paw. The paw scores were summed up to obtain a score for each individual animal. The individual sum scores of all the animals were averaged and SEMs were calculated. The scoring system used was: 0 = no detectable sign of inflammation; 1, light swollen region; 2, more obviously swollen region; 3, ankylosis or severely swollen region.
Serum obtained at the end of the study, was diluted 1:10000 and 1: 100000.
Three-μm thick sections were stained with Giemsa and Safranin O (prophylactic setting) or hematoxylin and eosin (therapeutic setting).
Histopathological changes were blindly scored on a scale of 0 (normal) to 3 (severe changes). Following parameters were assessed: inflammatory cell infiltrates, joint damage and proteoglycan loss ([44]).

[2] = molecular target: MALT1 (Canis lupus familiaris, UniProt A0A8I3RR14); assay: cell-based
MALT1, sequence (A0A8I3RR14 1-857): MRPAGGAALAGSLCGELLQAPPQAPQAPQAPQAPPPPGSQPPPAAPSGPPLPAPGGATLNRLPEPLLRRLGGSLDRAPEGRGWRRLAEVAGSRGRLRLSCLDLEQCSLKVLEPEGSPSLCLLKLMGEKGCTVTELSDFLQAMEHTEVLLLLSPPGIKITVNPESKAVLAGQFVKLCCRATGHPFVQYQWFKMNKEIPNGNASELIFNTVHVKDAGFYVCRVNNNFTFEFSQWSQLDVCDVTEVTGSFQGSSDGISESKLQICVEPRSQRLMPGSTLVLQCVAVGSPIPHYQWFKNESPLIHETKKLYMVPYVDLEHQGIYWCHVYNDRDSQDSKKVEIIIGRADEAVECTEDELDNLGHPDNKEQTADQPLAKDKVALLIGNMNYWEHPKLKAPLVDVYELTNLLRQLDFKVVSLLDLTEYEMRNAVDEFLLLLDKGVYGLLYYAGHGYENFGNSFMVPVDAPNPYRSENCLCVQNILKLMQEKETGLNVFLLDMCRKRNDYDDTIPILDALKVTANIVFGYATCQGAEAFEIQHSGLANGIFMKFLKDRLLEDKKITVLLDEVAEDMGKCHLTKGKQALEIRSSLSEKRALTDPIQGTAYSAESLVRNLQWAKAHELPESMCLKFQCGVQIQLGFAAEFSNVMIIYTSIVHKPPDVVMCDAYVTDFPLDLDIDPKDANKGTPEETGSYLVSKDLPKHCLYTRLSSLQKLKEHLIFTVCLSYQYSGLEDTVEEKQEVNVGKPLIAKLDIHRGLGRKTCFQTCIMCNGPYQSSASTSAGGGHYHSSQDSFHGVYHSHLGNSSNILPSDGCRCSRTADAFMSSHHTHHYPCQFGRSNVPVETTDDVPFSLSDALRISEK
Experimental: Human whole blood was obtained from healthy volunteers by venipuncture at the Novartis Basle Health care unit. Blood was pooled into two 50 ml Falcon tubes and filtered using a 100 μm (or 70 μm)-cell strainer. Serial dilutions of compounds (10 mM DMSO stock) were diluted again 1/10 in X-VIVO medium (Lonza Biosciences) and 500 μl of whole blood was mixed with 55 μl of X-VIVO/compound mixes and pre-incubated for 1 h at 37°C with shaking (∼600 rpm). After the pre-incubation time 200 μl of the blood/compound mixes in duplicates were transferred to a new flat bottom plates and PMA (final: 100 ng/ml)/anti-CD28 (final: 300 ng/ml) solution was added. Incubation was performed overnight at 37°C + 5% CO2. Blood plates were spun for 10 min at 470 g and 100 μl of the resulting serum was analyzed for IL-2 levels using MesoScale Discovery kits (MSD), according to the manufacturer’s protocol. […] Similar protocols were implemented for PBMC and blood from rat and dog species.

[3] = test system: Foxp3+ Treg cells; assay: Treg frequency and functional markers in mice treated 12 days; type: in vivo, C57BL/6 mice; conditions: 8 mg/kg BID i.p. or 16 mg/kg QD i.p.
Experimental: Eight-week-old C57BL/6 mice (Charles River France) were treated from day 0 to day 12, either via p.o. […] (mepazine) dosing. Mepazine acetate (Chembridge, San Diego, CA, United States) was solubilized and dosed in PEG200/water (30/70 v/v). […] Some animals were euthanized at the end of the treatment period for analysis of lymphoid organs, while other animals were kept until day 19 to analyze the recovery of Treg cells after cessation of the treatment. […] Blood samples were collected along the treatment and recovery period to monitor changes in Tregs levels over time. Treg frequencies in blood and spleen as well as the expression of CTLA-4, TNFR2, KLRG1, and CD25 on Tregs was assessed by flow cytometry (see below). All animal studies were performed in accordance with the animal experimentation laws and guidelines laid down by the Swiss Federal and Cantonal Authorities. […] Splenocytes were analyzed at scheduled necropsies. […] CTLA-4 expression was assessed intra- and extracellularly.

[4] = blood compound concentrations in mice; type: in vivo, C57BL/6 mice; conditions: mouse; for concentration at 1 h: C57BL/6, blood, ip, read-out: [Mepazine] blood at 1h (peak); for [Mepazine] blood at 15h (trough): BQL: below quantification limit

Structure (SMILES)	histo-pathological score of hind paw: Inflammation [1]	histo-pathological score of hind paw: Joint damage [1]	histo-pathological score of hind paw: Proteoglycan loss [1]	anti-collagen antibody production ([1]; po)	joint histology scores ([1]; po)	paw swelling ([1]; po)	IC50 [2]	expression of Treg activation markers [3]	frequency of Treg cells [3]	concentration at 1 h ([4]; 8 mg/kg BID i.p.)	concentration at 1 h ([4]; 16 mg/kg QD i.p.)	[Mepazine] blood at 15h (trough) ([4]; 8 mg/kg BID i.p.)	[Mepazine] blood at 15h (trough) ([4]; 16 mg/kg QD i.p.)
CO[C@@H](C)c1c(NC(=O)Nc2ccnc(C(F)(F)F)c2)cnc2cc(Cl)nn12 [MLT-943]	0	0	0	suppressed	normalized	fully prevented	92 nM	–	–	–	–	–	–
CN1CCCC(CN2c3ccccc3Sc3ccccc32)C1 (stereo not shown) [mepazine]	–	–	–	–	–	–	–	impacted neither	impacted neither	270 nM	770 nM	BQL	BQL

— article PMC7203682, “Pharmacological Inhibition of MALT1 Protease Leads to a Progressive IPEX-Like Pathology” (Frontiers in Immunology, 2020)
